From ChEMBL document CHEMBL4359851, “Design, synthesis, and biological evaluation of a new class of histone acetyltransferase p300 inhibitors” (Eur J Med Chem, 2019)
Values belong to the compound of their own block, whether it stands above or below them. The source made the active and inactive calls. The calls are words filed in the database; no cut-off is given here.

Legend:
[1] = molecular target: T1, Histone acetyltransferase p300 (Homo sapiens, UniProt Q09472); assay: Inhibition of p300 (unknown origin) using biotinylated histone H3 (1 to 21 residues) as substrate measured after 90 mins in presence of Acetyl CoA by AlphaLISA assay
T47D = assay: Antiproliferative activity against HER2-negative human T47D cells measured after 6 days of incubation by sulforhodamine B assay; assay type: functional, cell-based; conditions: 144 h
[2] = Reactivity with dithiothretol assessed as addition product with thiol group measured after 6 hrs by mass spectrometry; assay type: physicochemical
[3] = Reactivity with dithiothretol assessed as addition product with thiol group measured at 50 degC by mass spectrometry; assay type: physicochemical
[4] = molecular target: T1, Histone acetyltransferase p300; assay: Inhibition of p300 in human U2932 cells assessed as reduction in H3K27 acetylation at 10 uM measured after 4 days in presence of EZH2 inhibitor EPZ6438 by Western blot analysis; assay type: cell-based
Histone deacetylase 3 = Histone deacetylase 3 (Homo sapiens, UniProt O15379); assay: Inhibition of recombinant HDAC3 (unknown origin) measured after 30 mins by fluorescence assay
[5] = molecular target: T2, Protein deacetylase HDAC6 (Homo sapiens, UniProt Q9UBN7); assay: Inhibition of recombinant HDAC6 (unknown origin) measured after 30 mins by fluorescence assay
T2 sequence (Q9UBN7 whole entry): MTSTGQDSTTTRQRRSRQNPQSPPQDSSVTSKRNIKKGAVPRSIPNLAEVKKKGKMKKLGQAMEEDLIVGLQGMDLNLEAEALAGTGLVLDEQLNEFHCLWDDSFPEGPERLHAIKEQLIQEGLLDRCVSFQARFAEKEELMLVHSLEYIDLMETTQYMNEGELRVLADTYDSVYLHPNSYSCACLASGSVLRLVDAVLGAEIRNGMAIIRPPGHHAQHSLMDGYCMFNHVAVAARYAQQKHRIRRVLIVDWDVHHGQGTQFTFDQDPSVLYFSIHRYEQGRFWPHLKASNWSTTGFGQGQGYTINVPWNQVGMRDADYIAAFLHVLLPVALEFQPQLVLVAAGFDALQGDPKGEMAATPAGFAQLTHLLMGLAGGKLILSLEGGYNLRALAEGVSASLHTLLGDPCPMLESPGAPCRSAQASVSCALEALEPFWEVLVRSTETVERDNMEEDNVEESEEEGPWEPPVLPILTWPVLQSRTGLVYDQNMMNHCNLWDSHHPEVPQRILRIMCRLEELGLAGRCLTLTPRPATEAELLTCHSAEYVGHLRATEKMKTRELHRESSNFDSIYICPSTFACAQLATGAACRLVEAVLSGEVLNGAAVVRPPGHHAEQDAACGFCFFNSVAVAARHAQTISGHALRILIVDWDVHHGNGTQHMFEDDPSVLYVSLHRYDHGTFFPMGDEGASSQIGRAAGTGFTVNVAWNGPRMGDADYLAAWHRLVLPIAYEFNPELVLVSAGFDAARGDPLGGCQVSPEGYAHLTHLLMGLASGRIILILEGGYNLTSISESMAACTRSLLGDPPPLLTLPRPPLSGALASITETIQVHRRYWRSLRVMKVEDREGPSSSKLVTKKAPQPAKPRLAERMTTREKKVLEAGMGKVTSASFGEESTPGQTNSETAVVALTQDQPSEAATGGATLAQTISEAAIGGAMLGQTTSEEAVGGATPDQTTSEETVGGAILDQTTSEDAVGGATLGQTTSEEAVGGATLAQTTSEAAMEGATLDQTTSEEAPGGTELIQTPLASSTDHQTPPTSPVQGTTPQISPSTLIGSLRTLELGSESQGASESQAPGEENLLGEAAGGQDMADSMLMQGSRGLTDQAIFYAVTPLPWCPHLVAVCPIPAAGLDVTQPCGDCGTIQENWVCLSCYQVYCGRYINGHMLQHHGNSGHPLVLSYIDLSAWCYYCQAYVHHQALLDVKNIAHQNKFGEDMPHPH

[6] = Reactivity with glutathione assessed as addition product with thiol group measured after 6 hrs by mass spectrometry; assay type: physicochemical
Histone deacetylase 2 = Histone deacetylase 2 (Homo sapiens, UniProt Q92769); assay: Inhibition of recombinant HDAC2 (unknown origin) measured after 30 mins by fluorescence assay
Histone deacetylase 1 = Histone deacetylase 1 (Homo sapiens, UniProt Q13547); assay: Inhibition of recombinant HDAC1 (unknown origin) measured after 30 mins by fluorescence assay
MCF7 = assay: Antiproliferative activity against HER2-negative human MCF7 cells measured after 6 days of incubation by sulforhodamine B assay; assay type: functional, cell-based; conditions: MCF7, 144 h
Histone deacetylase 8 = molecular target: T3, Histone deacetylase 8 (Homo sapiens, UniProt Q9BY41); assay: Inhibition of recombinant HDAC8 (unknown origin) measured after 30 mins by fluorescence assay
T3 sequence (Q9BY41 whole entry): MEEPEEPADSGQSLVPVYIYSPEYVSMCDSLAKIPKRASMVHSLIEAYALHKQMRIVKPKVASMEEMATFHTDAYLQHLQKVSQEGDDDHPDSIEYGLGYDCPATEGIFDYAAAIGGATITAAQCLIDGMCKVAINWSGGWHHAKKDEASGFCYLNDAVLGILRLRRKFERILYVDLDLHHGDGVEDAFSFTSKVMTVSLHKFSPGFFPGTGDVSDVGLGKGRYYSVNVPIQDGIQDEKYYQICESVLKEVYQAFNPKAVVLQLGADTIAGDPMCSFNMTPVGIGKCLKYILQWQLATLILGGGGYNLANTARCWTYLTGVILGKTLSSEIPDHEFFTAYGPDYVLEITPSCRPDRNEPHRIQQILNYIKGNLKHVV

[7] = Reactivity with glutathione assessed as addition product with thiol group measured at 50 degC by mass spectrometry; assay type: physicochemical
[8] = Solubility of compound in ethyl acetate; assay type: physicochemical
[9] = Solubility of compound in water; assay type: physicochemical; conditions: buffer
[10] = Reactivity with glutathione assessed as addition product with thiol group measured within 1 hr by mass spectrometry; assay type: physicochemical
[11] = Reactivity with dithiothretol assessed as addition product with thiol group measured within 1 hr by mass spectrometry; assay type: physicochemical

T1 sequence (Q09472 whole entry, the tested form may be a part): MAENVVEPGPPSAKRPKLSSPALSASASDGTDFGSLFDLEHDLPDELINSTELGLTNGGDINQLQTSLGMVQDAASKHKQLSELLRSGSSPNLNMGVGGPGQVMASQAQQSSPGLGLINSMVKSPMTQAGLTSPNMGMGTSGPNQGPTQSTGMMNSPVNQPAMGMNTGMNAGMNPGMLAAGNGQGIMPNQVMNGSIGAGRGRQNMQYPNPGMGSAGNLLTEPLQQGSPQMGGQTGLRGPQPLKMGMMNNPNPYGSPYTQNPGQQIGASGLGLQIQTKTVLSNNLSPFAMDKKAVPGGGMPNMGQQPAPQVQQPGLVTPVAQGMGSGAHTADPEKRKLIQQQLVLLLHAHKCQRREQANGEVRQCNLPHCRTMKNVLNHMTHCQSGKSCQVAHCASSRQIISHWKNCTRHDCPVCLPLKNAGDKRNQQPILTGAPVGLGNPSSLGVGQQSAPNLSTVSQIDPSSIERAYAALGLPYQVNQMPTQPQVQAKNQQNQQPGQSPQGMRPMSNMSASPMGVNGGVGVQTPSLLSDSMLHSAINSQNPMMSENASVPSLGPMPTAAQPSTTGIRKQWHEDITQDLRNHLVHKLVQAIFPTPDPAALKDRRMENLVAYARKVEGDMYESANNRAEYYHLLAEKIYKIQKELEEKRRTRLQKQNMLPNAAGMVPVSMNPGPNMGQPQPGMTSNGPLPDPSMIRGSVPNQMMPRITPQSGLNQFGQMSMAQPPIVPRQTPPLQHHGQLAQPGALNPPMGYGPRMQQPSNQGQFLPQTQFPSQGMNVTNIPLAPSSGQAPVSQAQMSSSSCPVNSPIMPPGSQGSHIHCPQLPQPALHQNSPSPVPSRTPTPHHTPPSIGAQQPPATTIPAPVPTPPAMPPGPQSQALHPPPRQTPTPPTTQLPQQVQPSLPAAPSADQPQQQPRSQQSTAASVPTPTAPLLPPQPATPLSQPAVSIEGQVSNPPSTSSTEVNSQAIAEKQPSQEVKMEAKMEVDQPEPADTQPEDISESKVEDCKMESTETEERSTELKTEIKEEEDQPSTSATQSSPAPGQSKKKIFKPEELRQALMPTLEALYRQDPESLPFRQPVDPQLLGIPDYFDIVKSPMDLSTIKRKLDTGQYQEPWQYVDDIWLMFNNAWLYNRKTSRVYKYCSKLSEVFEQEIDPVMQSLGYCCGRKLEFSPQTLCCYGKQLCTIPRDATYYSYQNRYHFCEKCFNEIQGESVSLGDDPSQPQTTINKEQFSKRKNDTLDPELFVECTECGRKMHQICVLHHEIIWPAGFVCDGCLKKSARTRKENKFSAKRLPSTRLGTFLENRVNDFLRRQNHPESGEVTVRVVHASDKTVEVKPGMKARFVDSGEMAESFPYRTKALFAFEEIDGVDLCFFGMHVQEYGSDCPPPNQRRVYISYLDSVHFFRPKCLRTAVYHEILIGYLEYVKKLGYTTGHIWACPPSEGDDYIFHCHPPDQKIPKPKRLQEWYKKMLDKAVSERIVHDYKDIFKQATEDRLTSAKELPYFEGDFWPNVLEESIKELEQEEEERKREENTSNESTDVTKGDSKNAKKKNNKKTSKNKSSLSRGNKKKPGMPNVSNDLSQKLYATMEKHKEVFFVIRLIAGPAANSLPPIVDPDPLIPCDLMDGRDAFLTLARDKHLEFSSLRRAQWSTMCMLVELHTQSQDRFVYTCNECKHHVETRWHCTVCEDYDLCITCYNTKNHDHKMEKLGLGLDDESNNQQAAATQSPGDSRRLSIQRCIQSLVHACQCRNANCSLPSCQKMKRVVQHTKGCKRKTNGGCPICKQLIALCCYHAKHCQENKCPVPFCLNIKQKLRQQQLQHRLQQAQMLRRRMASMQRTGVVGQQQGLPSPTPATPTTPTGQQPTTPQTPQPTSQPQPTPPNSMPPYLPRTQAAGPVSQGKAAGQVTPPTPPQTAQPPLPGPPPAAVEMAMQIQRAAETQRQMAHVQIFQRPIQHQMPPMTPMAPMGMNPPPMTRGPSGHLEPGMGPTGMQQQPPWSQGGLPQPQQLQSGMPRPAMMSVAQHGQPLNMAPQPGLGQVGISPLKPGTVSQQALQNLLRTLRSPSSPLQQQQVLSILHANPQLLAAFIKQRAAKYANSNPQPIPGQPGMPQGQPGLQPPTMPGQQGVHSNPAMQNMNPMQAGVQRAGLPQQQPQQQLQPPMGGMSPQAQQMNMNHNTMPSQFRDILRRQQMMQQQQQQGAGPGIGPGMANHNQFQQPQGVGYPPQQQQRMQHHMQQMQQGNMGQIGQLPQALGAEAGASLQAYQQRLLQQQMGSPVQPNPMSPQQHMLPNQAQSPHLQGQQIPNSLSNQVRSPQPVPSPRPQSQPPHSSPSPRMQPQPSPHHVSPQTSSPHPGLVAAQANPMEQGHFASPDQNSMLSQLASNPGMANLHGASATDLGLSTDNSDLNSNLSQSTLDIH
Chain of Histone deacetylase 3 (O15379 whole entry): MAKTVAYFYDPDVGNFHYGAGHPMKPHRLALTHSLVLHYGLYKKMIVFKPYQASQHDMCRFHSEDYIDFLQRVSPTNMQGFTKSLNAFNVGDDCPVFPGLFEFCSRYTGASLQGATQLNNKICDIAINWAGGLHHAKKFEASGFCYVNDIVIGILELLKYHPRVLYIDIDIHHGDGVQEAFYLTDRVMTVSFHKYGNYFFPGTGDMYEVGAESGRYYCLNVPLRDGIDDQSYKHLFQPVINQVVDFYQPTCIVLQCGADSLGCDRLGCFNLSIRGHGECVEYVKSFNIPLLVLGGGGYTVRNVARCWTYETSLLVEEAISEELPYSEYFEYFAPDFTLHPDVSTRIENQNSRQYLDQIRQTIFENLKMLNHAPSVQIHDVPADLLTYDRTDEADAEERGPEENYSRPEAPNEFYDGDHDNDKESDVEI
Chain of Histone deacetylase 2 (Q92769 whole entry): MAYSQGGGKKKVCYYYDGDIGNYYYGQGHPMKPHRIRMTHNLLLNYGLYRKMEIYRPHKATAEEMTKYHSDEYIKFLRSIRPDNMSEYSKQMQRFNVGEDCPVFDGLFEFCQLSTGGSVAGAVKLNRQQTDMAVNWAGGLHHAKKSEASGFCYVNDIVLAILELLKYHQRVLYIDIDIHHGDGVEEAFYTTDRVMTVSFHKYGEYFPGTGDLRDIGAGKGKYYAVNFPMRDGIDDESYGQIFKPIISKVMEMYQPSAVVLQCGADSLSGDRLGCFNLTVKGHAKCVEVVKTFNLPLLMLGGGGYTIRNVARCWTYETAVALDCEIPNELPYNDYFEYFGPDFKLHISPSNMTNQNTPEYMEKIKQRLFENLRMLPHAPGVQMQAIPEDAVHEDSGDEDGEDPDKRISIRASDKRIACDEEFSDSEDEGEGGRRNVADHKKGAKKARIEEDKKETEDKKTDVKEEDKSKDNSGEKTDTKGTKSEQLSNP
Chain of Histone deacetylase 1 (Q13547 whole entry): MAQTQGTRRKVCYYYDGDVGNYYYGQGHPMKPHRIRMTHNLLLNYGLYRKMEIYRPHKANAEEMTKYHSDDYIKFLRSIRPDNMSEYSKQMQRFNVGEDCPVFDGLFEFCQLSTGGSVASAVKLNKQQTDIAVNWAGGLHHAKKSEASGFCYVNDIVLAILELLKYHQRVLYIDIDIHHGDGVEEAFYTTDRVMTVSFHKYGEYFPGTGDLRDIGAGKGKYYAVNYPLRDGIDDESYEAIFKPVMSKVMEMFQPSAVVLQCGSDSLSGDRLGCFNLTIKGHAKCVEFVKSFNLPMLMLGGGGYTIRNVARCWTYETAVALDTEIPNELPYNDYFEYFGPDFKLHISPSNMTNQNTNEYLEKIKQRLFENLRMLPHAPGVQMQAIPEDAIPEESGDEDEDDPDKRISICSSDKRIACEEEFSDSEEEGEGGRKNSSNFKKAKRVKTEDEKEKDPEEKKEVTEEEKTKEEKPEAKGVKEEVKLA

SMILES: Cc1cc(-c2ccc(/C=C(\C#N)C(=O)Nc3ccc(C(=O)O)cc3)o2)c([N+](=O)[O-])cc1C
IC50 [1]: 7.13 µM

SMILES: CC1=NN(c2ccc(S(C)(=O)=O)cc2)C(=O)/C1=C\c1ccc(-c2cc(C)c(C)cc2[N+](=O)[O-])o1
IC50 [1]: 4.06 µM

SMILES: CC1=NN(c2ccc(C(=O)O)cc2)C(=O)/C1=C(/C)c1ccc(-c2cc(C)c(C)cc2[N+](=O)[O-])o1
IC50 [1]: 2.07 µM

SMILES: CC1=NN(c2ccc(C(=O)O)cc2)C(=O)C1CC(=O)Nc1cc(C)c(C)cc1[N+](=O)[O-] (stereo not given)
IC50 [1]: 9.61 µM

SMILES: Cc1cc(-c2ccc(/C=C3/SC(=O)N(c4ccc(C(=O)O)cc4)C3=O)o2)c([N+](=O)[O-])cc1C
IC50 [1]: > 10 µM

SMILES: Cc1cc(C(=O)c2ccc3c(ccn3-c3ccc(C(=O)O)cc3)c2)c([N+](=O)[O-])cc1C
IC50 [1]: > 10 µM

SMILES: CC1=NN(c2ccc(C(=O)O)cc2)C(=O)/C1=C\c1ccc(-c2ccccc2P(C)(C)=O)o1
IC50 [1]: > 10 µM

SMILES: CC1=NN(c2cc(F)c(O)c(F)c2)C(=O)/C1=C\c1ccc(-c2cc(C)c(C)cc2[N+](=O)[O-])o1
solubility [8]: Soluble
IC50 [1]: 4.8 µM
inhibition [4]: Active
solubility [9]: Soluble

SMILES: CC1=NN(c2cc(F)c(O)c(F)c2)C(=O)/C1=C\c1ccc(-c2cccc3c2C(=O)CC3)o1
solubility [8]: Soluble
IC50 [1]: 3.73 µM
inhibition [4]: Active
solubility [9]: Soluble

SMILES: Cc1cc(-c2ccc(/C=C3/NC(=O)N(c4ccc(C(=O)O)cc4)C3=O)o2)c([N+](=O)[O-])cc1C
IC50 [1]: > 10 µM

SMILES: Cc1cc(Cc2ccc3c(cnn3-c3ccc(C(=O)O)cc3)c2)c([N+](=O)[O-])cc1C
IC50 [1]: > 10 µM

SMILES: CC1=NN(c2ccc(C(=O)O)cc2)C(=O)C1CCC(=O)Nc1cc(C)c(C)cc1[N+](=O)[O-] (stereo not given)
IC50 [1]: > 10 µM

SMILES: Cc1cc(C(=O)c2ccc3c(cnn3-c3ccc(C(=O)O)cc3)c2)c([N+](=O)[O-])cc1C
IC50 [1]: > 10 µM

SMILES: CC1=NN(c2cc(F)c(O)c(F)c2)C(=O)/C1=C\c1ccc(-c2cc(C)c(C)cc2C(F)(F)F)o1
solubility [8]: Soluble
IC50 [1]: 7.31 µM
inhibition [4]: Active
solubility [9]: Soluble

SMILES: CC1=NN(c2cc(F)c(O)c(F)c2)C(=O)/C1=C\c1ccc(-c2ccccc2C(F)F)o1
solubility [8]: Soluble
IC50 [1]: 6.05 µM
inhibition [4]: Active
solubility [9]: Soluble

SMILES: CC1=NN(c2cc(F)c(O)c(F)c2)C(=O)/C1=C\c1ccc(-c2ccccc2OC(F)(F)F)o1
IC50 [1]: > 10 µM

SMILES: CC1=NN(c2ccc(C(=O)O)cc2)C(=O)/C1=C\c1ccc(-c2cc(C)c(C)cc2[N+](=O)[O-])o1
Activity [10]: Active
IC50 (T47D): 7.8 µM
IC50 (MCF7): 26.1 µM
Activity [11]: Active

The next lines start with the values.

IC50 [1]: 0.56 µM
SMILES: CC1=NN(c2ccc(C(=O)O)cc2)C(=O)/C1=C\c1ccc(-c2ccccc2[N+](=O)[O-])o1

IC50 [1]: 0.67 µM
SMILES: CC1=NN(c2ccc(-c3nn[nH]n3)cc2)C(=O)/C1=C\c1ccc(-c2cc(C)c(C)cc2[N+](=O)[O-])o1

IC50 [1]: 1.95 µM
SMILES: CC1=NN(c2ccc(C(=O)O)cc2)C(=O)/C1=C\c1ccc(-c2cc(C)c(C)cc2[N+](=O)[O-])[nH]1

IC50 [1]: 0.16 µM
IC50 (T47D): 5.08 µM
Activity [2]: Not Active
Activity [3]: Active
inhibition [4]: Active
IC50 (Histone deacetylase 3): > 100 µM
IC50 [5]: 25.1 µM
Activity [6]: Not Active
IC50 (Histone deacetylase 2): > 100 µM
IC50 (Histone deacetylase 1): > 100 µM
IC50 (MCF7): 22.5 µM
IC50 (Histone deacetylase 8): > 100 µM
Activity [7]: Active
SMILES: Cc1cc(-c2ccc(/C=C3\C(=O)N(c4ccc(C(=O)O)cc4)N=C3C3CC3)s2)c(C(F)(F)F)cc1C

IC50 [1]: 0.23 µM
IC50 (T47D): 8.92 µM
inhibition [4]: Active
IC50 (MCF7): 27.3 µM
SMILES: CC1=NN(c2ccc(C(=O)O)cc2)C(=O)/C1=C\c1ccc(-c2cc(C)c(C)cc2[N+](=O)[O-])s1

IC50 [1]: 1.53 µM
SMILES: CC1=NN(c2ccc(C#N)cc2)C(=O)/C1=C\c1ccc(-c2cc(C)c(C)cc2[N+](=O)[O-])o1

IC50 [1]: 0.29 µM
IC50 (T47D): 6.19 µM
inhibition [4]: Active
IC50 (MCF7): 10.9 µM
SMILES: CC1=NN(c2ccc(C(=O)O)cc2)C(=O)/C1=C\c1ccc(-c2cc(C)c(C)cc2C(F)(F)F)o1

IC50 [1]: 0.47 µM
SMILES: CC1=NN(c2ccc(P(=O)(O)O)cc2)C(=O)/C1=C\c1ccc(-c2cc(C)c(C)cc2[N+](=O)[O-])o1

IC50 [1]: 0.19 µM
SMILES: CCC1=NN(c2ccc(C(=O)O)cc2)C(=O)/C1=C\c1ccc(-c2cc(C)c(C)cc2[N+](=O)[O-])o1

IC50 [1]: 1.17 µM
SMILES: CC1=NN(c2ccc(C(=O)O)cc2)C(=O)/C1=C\c1ccc(-c2ccccc2C(F)F)o1

IC50 [1]: 0.86 µM
SMILES: CC1=NN(c2ccc(C(=O)O)cc2)C(=O)/C1=C\c1cnc(-c2cc(C)c(C)cc2[N+](=O)[O-])s1

IC50 [1]: 1.13 µM
IC50 (T47D): 7.67 µM
inhibition [4]: Active
IC50 (MCF7): 23.9 µM
SMILES: CC1=NN(c2ccc(C(=O)O)cc2)C(=O)/C1=C\c1ccc(-c2ccccc2OC(F)(F)F)o1

IC50 [1]: 0.2 µM
SMILES: Cc1cc(-c2ccc(/C=C3\C(=O)N(c4ccc(C(=O)O)cc4)N=C3C3CC3)o2)c([N+](=O)[O-])cc1C

IC50 [1]: 0.58 µM
IC50 (T47D): 10 µM
inhibition [4]: Active
IC50 (MCF7): 26.8 µM
SMILES: CC1=NN(c2ccc(C(=O)O)cc2)C(=O)/C1=C\c1ccc(-c2cccc3c2C(=O)CC3)o1
